Data as given in patent US10125184B2, “Apolipoprotein E polypeptides and their use” (priority 2011, dated 2018).
Ends that are not written are not given here. Peptide text beside a SMILES is read from it.

Key:
[1] = tested on: HCVcc-luc; test: Attachment versus post-attachment inhibition assay; assay type: cell-based, Hepatitis C virus; details: heparin 200 μg/ml, anti-CD81 5 μg/ml, hEP 20 μg/ml, bafilomycin A1 10 nM
Procedure: FIGS. 5A-5D. hEP inhibits HCV entry at the attachment step. (A) HCVcc-luc was first mixed with either scrambled peptide or hEP-2 (20 μg/ml) for one hour at room temperature. In Group 1, mixed virus was directly added to Huh7.5.1 cells, whereas in Group 2, virus was purified through ultracentrifuge at 28,000×g for 4 hours in order to remove peptide, and then used to infect Huh7.5.1 cells. **p<0.005. (B) The kinetics of hEP- and bafilomycin A1-mediated inhibition were determined by time-of-addition assays, as described in the examples section. Fitted lines represent sigmoidal time-dependent curves (mean of n=3; error bars, s.d.). (C) HCVcc-Luc was added to Huh7.5.1 cells at 4° C. and incubated for 1.5 hrs. Unbound virus was removed by 2 washes with cold media, fresh media was added, and the cells were shifted to 37° C. to allow synchronous infection to proceed. Heparin (200 μg/ml), anti-CD81 monoclonal antibody (5 μg/ml), hEP (20 μg/ml), or bafilomycin A1 (10 nM) were present in the media either continuously, during the 4° C. incubation only (attachment), or during the 37° C. incubation phase only (post-attachment). % Inhibition was calculated as 100-percent infection relative to control infections containing DMSO or an isotype antibody control containing 0.01% sodium azide (for anti-CD81 only) (mean of n=3; error bars, s.d.). (D) The effects of hEP (2.7 μM) or scrambled peptide on HCV binding were determined as described in the examples section. Results were calculated as relative RNA copies with numbers obtained from the scrambled peptide treated wells set to 100 (mean of n=3; error bars, s.d.). **p<0.005.
To investigate the mechanistic action of hEP, three sets of experiments were conducted. First, hEP-2 (SEQ ID NO: 9) or scrambled peptide-treated HCVcc were purified through ultracentrifugation to remove the peptide and then used to infect naïve Huh7.5.1 cells. […] Second, to determine the kinetics of inhibition, a time-of-addition experiment was conducted. HCV remained sensitive to bafilomycin A1, a fusion inhibitor that prevents endosome acidification, until 3 hours after the 37° C. temperature shift (FIG. 5B), which is consistent with previous reports (Koutsoudakis et al., J Virol 2006; 80:5308-5320). […] In order to determine whether hEP-2 (SEQ ID NO: 9) blocks infection at the initial attachment step or a downstream event in the HCV entry process, hEP-2 (SEQ ID NO: 9) was either added together with HCVcc to cells during the 4° C. attachment step only, and then removed prior to shifting the temperature to 37° C., or added only after the temperature shift. As a positive control, hEP-1 was present during the entire course of the experiment. […] Finally, the direct binding of virions to cell surface was measured using a real-time PCR based assay.

[2] = tested on: JFH-1 HCVcc-Luc; details: for IC50: HCVcc infection of Huh7.5.1 cells
Procedure: FIGS. 1A-1C. […] (A) Schematic illustration of apoE protein domains and the amino acid sequences of hEP and mEP peptides. The amino acid sequences shown are hEP-1 (SEQ ID NO: 6) and mEP (SEQ ID NO: 20). […] Huh7.5.1 cells were infected with JFH-1 HCVcc-Luc (MOI˜0.5) in the presence of hEP or mEP for 2 hours. After removal of virus and peptides, cells were further incubated for 48 hours prior to luciferase assay. Data are presented as % inhibition relative to control infections in which cells were treated with DMSO (0%). Results are expressed as mean±standard deviation (s.d.) (n=3). (C). Huh7.5.1 cells were treated with hEP or DMSO at indicated doses for 48 hours. The effect of hEP on cell viability was measured by a CellTiter Glo assay kit.
FIGS. 7A-7E. Mapping the anti-viral activity of hEP. In (A) and (B), HCVcc-luc was first mixed with indicated peptides (20 μg/ml, 2.7 μM) and then incubated with Huh7.5.1 cells for two hours at 37° C. to initiate infection. After additional 48 hours incubation, luciferase activity was measured. Results are presented as fold of inhibition relative to infections containing DMSO (n=5, mean±sd). (C) 20 μg of hEP-2 or hEP-2/ΔCys were resuspended in PBS and kept at room temperature for 30 minutes. Peptides were then mixed with 2×SDS-sample buffer without DTT and boiled for 5 minutes. Alternatively, samples were simply left unboiled or mixed with sample buffer containing DTT (2 mM). Peptide samples were then subjected to electrophoresis on a 16% tricine non-reducing gel (Invitrogen). […] (D) and (E) Mass spectrometric analysis of hEP-2 or hEP-2/ΔCys.
Detailed procedures involving the production and use of HCVpp and HCVcc have been published elsewhere (Liu et al., J Virol 2009; 83:2011-2014; Yang et al., Hepatology 2008; 48:1396-1403; Yang et al., J Biol Chem 2008; 283:8643-8653). Production procedure of HCVcc expressing firefly luciferase that was inserted between NS5A and NS5B (JFH-1 strain) was described elsewhere (Liu et al., Virology 2010; 407:160-170). Unless otherwise indicated, viruses were typically added to cells for two hours before removal. Cells were incubated for additional 48 hours followed by luciferase assay. When purification was needed, HCVcc were subjected to ultracentrifugation (SW41, 28,000×g) for 4 hours through a 20% sucrose cushion. Deidentified human sera, collected from five patients containing high-titer HCV (HCVser), were obtained.

[3] = physchem
[4] = DMPC binding assay (turbidity OD490nm); details: reduction (percentage) of turbidity (OD490nm) of DMPC solution, plateau 10 minutes after addition of peptide
Procedure: FIGS. 3A-3C. Both hEP and mEP mediate plasma cholesterol clearance through hepatic lipoprotein receptors. (A) DMPC binding assay was conducted as described in the examples section. The turbidity of DMPC vesicle solution was monitored by OD490 nm. The curves were representative of two independent experiments. (B) HEK293T cells were loaded with DiI-LDL (5 μg/ml) along with apoE peptide-DMPC particles which competed with DiI-LDL for LDLR binding and LDLR-mediated endocytosis (for 30 min) n=3 for each group. (C) Each peptide (100 μg in 100 μl PBS) was retro-orbitally injected into 6-month-old apoE−/− mice (two mice each group). PBS (100 μl) was injected into two other mice as control. Before (set as 0 min time point) and 5 min, 30 min, 1 h, 2 h, and 4 h after the peptide or PBS injection, 30 μl blood samples were drawn for plasma cholesterol measurement using total Cholesterol Reagent Kit (Raichem, San Diego, Calif.).
1,2-dimyristoyl-sn-glycero-3-phosphatidylcholine (DMPC) (Avanti Polar Lipids Inc., Alabaster, Ala.) was dissolved in chloroform: methanol (3:1, v/v). It was dried thoroughly under a stream of N2. The dried lipid sample was dispersed in pre-warmed buffer (10 mM Tris-HCl, pH7.2; 150 mM NaCl; 0.5 mM EDTA) to final lipid concentration of 10 mg/ml, vortexed for 1 min, and sonicated 10 times at lowest power for 10 seconds at 24° C. The peptide solution, lipid solution and buffer were all maintained at 23.9° C. One milliliter buffer and 250 μg (25 μl lipid solution) were added in a quartz cuvette, and let equilibrate for 10 min, resulting in a turbid DMPC vesicle solution. Peptide solution (250 μg in 100 μl) was then added to turbid solution in the cuvette, the solution was mixed immediately, and the change of turbidity was monitored by OD at 490 nm as a function of time. If the peptide binds to DMPC vesicles, the large DMPC vesicles will be transformed into smaller DMPC-peptide particles, reducing the turbidity of the solution.

heparin [reference compound]
Inhibition when present during the 4° C. attachment step only [1]: predominant

CVRLASHLRKLRKRLLRDADDL [hEP-4]
IC50 [2]: > 10 µM | solubility [3]: < 0.22 mg/mL

CEEIRARLSTHLRKMRKRLMRDADDLQKRLAVY [mEP-2]
IC50 [2]: > 10 µM | solubility [3]: > 0.22 mg/mL

CC[C@H](C)[C@H](NC(=O)[C@@H](N)CS)C(=O)N[C@@H](CCCNC(=N)N)C(=O)N[C@@H](CC(C)C)C(=O)N[C@@H](CCC(N)=O)C(=O)N[C@@H](C)C(=O)N[C@@H](CCC(=O)O)C(=O)N[C@@H](C)C(=O)N[C@@H](Cc1ccccc1)C(=O)N[C@@H](CCC(N)=O)C(=O)N[C@@H](C)C(=O)N[C@@H](CCCNC(=N)N)C(=O)N[C@@H](CC(C)C)C(=O)N[C@@H](CCCCN)C(=O)N[C@@H](CO)C(=O)N[C@@H](Cc1c[nH]c2ccccc12)C(=O)N[C@@H](Cc1ccccc1)C(=O)N[C@@H](CCC(=O)O)C(=O)N1CCC[C@H]1C(=O)N[C@@H](CC(C)C)C(=O)N[C@H](C(=O)O)C(C)C [hEP-5]
IC50 [2]: > 10 µM

EELRVRLASHLRKLRKRLLRDADDLQKRLAVY [hEP-2/ΔCys]
IC50 [2]: > 10 µM | solubility [3]: > 0.22 mg/mL

CEELRVRLASHLRKLRKRLLRDADDLQKRLAVY [hEP-2]
IC50 [2]: 0.5 µM | solubility [3]: > 0.22 mg/mL

CVDRYEARLRARALKDRQKRLLKELSLLVRHLD [Scrambled, reference compound]
IC50 [2]: > 10 µM | solubility [3]: > 0.22 mg/mL

LRVRLASHLRKLRKRLLRDADDLQKRLAVY [hEP-7]
IC50 [2]: > 10 µM

VRLASHLRKLRKRLLRDADDLIRLQAEAFQARLKSWFEPLV [hEP-6]
IC50 [2]: > 10 µM

CVRLASHLRKLRKRLLRDADDLQKRLAVY [hEP-10]
IC50 [2]: 0.8 µM | solubility [3]: > 0.22 mg/mL

CEEQAQQIRLQAEAFQARLKSWFEPLVEDM [hEP-3]
Inhibition of HCVcc infection/entry (in words) ([2]; Huh7.5.1 cells): dramatically reduced ability to inhibit HCVcc entry | DMPC binding [4]: + (+, reduction 25-50%) | solubility [3]: < 0.22 mg/mL

VRLASHLRKLRKRLLRDADDLQKRLAVY [hEP-9]
IC50 [2]: > 10 µM

CC(C)C[C@H](NC(=O)[C@H](CC(=O)O)NC(=O)[C@H](CC(=O)O)NC(=O)[C@H](C)NC(=O)[C@H](CC(=O)O)NC(=O)[C@H](CCCNC(=N)N)NC(=O)[C@H](CC(C)C)NC(=O)[C@H](CC(C)C)NC(=O)[C@H](CCCNC(=N)N)NC(=O)[C@H](CCCCN)NC(=O)[C@H](CCCNC(=N)N)NC(=O)[C@H](CC(C)C)NC(=O)[C@H](CCCCN)NC(=O)[C@H](CCCNC(=N)N)NC(=O)[C@H](CC(C)C)NC(=O)[C@H](Cc1c[nH]cn1)NC(=O)[C@H](CO)NC(=O)[C@H](C)NC(=O)[C@H](CC(C)C)NC(=O)[C@H](CCCNC(=N)N)NC(=O)[C@@H](NC(=O)[C@H](CCCNC(=N)N)NC(=O)[C@H](CC(C)C)NC(=O)[C@H](CCC(=O)O)NC(=O)[C@@H](N)CCC(=O)O)C(C)C)C(=O)O [hEP-8]
IC50 [2]: > 10 µM

CC(C)C[C@H](NC(=O)[C@H](CC(=O)O)NC(=O)[C@H](CC(=O)O)NC(=O)[C@H](C)NC(=O)[C@H](CC(=O)O)NC(=O)[C@H](CCCNC(=N)N)NC(=O)[C@H](CC(C)C)NC(=O)[C@H](CC(C)C)NC(=O)[C@H](CCCNC(=N)N)NC(=O)[C@H](CCCCN)NC(=O)[C@H](CCCNC(=N)N)NC(=O)[C@H](CC(C)C)NC(=O)[C@H](CCCCN)NC(=O)[C@H](CCCNC(=N)N)NC(=O)[C@H](CC(C)C)NC(=O)[C@H](Cc1c[nH]cn1)NC(=O)[C@H](CO)NC(=O)[C@H](C)NC(=O)[C@H](CC(C)C)NC(=O)[C@H](CCCNC(=N)N)NC(=O)[C@@H](NC(=O)[C@H](CCCNC(=N)N)NC(=O)[C@H](CC(C)C)NC(=O)[C@@H](N)CS)C(C)C)C(=O)O [hEP-11]
IC50 [2]: 4 µM | solubility [3]: < 0.22 mg/mL

CC(C)C[C@H](NC(=O)[C@H](CC(C)C)NC(=O)[C@H](CCCNC(=N)N)NC(=O)[C@H](CCCCN)NC(=O)[C@H](CCCNC(=N)N)NC(=O)[C@H](CC(C)C)NC(=O)[C@H](CCCCN)NC(=O)[C@H](CCCNC(=N)N)NC(=O)[C@H](CC(C)C)NC(=O)[C@@H](N)CS)C(=O)N[C@@H](CCCNC(=N)N)C(=O)N[C@@H](CS)C(=O)O [hEP-12, CLRKLRKRLLRC] (H-CLRKLRKRLLRC-OH; N-terminus and C-terminus assumed)
IC50 [2]: > 10 µM | solubility [3]: < 0.22 mg/mL
